# Source: patent US12152024B2, “Pesticidally active heterocyclic derivatives with sulphur and hydroxylamine substituents” (SYNGENTA PARTICIPATIONS AG, priority 2016, dated 2024)
# Experiments:
# [1] = test system: Tetranychus urticae (Two-Spotted Spider Mite); experiment: Activity against Tetranychus urticae (two-spotted spider mite); format: in vivo; conditions: 192 h, application rate 200 ppm, mixed population (mobile stages), 8 days after infestation
# Experimental: Bean leaf discs on agar in 24-well microtiter plates were sprayed with aqueous test solutions prepared from 10′000 ppm DMSO stock solutions. After drying the leaf discs were infested with a mite population of mixed ages. The samples were assessed for mortality on mixed population (mobile stages) 8 days after infestation.
# [2] = test system: Plutella xylostella (Diamond Back Moth); experiment: Activity against Plutella xylostella (diamond back moth), artificial diet; format: in vivo; conditions: for percent effect (mortality or growth inhibition) at 200 ppm: 120 h, application rate 200 ppm, L2 larvae, 5 days after infestation, read-out: effect in at least one of the two categories (mortality or growth inhibition)
# Experimental: (§1) 24-well microtiter plates with artificial diet were treated with aqueous test solutions prepared from 10′000 ppm DMSO stock solutions by pipetting. After drying, the plates were infested with L2 larvae (10 to 15 per well). The samples were assessed for mortality and growth inhibition in comparison to untreated samples 5 days after infestation.
# [3] = test system: Spodoptera littoralis (Egyptian Cotton Leaf Worm); experiment: Activity against Spodoptera littoralis (Egyptian cotton leaf worm), cotton leaf discs sprayed; format: in vivo; conditions: for percent control (mortality, anti-feedant effect or growth inhibition) at 200 ppm: foliar, 72 h, application rate 200 ppm, L1 larvae, 3 days after infestation, read-out: control (mortality, anti-feeding effect or growth inhibition)
# Experimental: Cotton leaf discs were placed onto agar in 24-well microtiter plates and sprayed with aqueous test solutions prepared from 10′000 ppm DMSO stock solutions. After drying the leaf discs were infested with five L1 larvae. The samples were assessed for mortality, anti-feeding effect, and growth inhibition in comparison to untreated samples 3 days after infestation. Control of Spodoptera littoralis by a test sample is given when at least one of the categories mortality, anti-feedant effect, and growth inhibition is higher than the untreated sample.
# [4] = test system: Myzus persicae (Green Peach Aphid); experiment: Activity against Myzus persicae (green peach aphid): feeding/contact activity; format: in vivo; conditions: for mortality at 200 ppm: Myzus persicae, 144 h, application rate 200 ppm, feeding/contact, mixed ages, 6 days after infestation
# Experimental: Sunflower leaf discs were placed onto agar in a 24-well microtiter plate and sprayed with aqueous test solutions prepared from 10′000 ppm DMSO stock solutions. After drying, the leaf discs were infested with an aphid population of mixed ages. The samples were assessed for mortality 6 days after infestation.
# [5] = test system: Myzus persicae (Green Peach Aphid); experiment: Activity against Myzus persicae (green peach aphid): systemic activity; format: in vivo; conditions: for mortality at 24 ppm: Myzus persicae, 144 h, test rate 24 ppm, systemic, pea seedling roots in test solution, 6 days
# Experimental: Roots of pea seedlings infested with an aphid population of mixed ages were placed directly into aqueous test solutions prepared from 10′000 DMSO stock solutions. The samples were assessed for mortality 6 days after placing seedlings into test solutions.
# [6] = test system: Bemisia tabaci (Cotton White Fly); experiment: Activity against Bemisia tabaci (cotton white fly); format: in vivo; conditions: 144 h, application rate 200 ppm, adult white flies, 6 days after incubation
# Experimental: Cotton leaf discs were placed on agar in 24-well microtiter plates and sprayed with aqueous test solutions prepared from 10′000 ppm DMSO stock solutions. After drying the leaf discs were infested with adult white flies. The samples were checked for mortality 6 days after incubation.
# [7] = test system: Euschistus heros (Neotropical Brown Stink Bug); experiment: Activity against Euschistus heros (neotropical brown stink bug), soybean leaves sprayed; format: in vivo; conditions: 120 h, application rate 200 ppm, N2 nymphs, 5 days after infestation, read-out: effect in at least one of the two categories (mortality or growth inhibition)
# Experimental: Soybean leaves on agar in 24-well microtiter plates were sprayed with aqueous test solutions prepared from 10′000 ppm DMSO stock solutions. After drying the leaves were infested with N2 nymphs. The samples were assessed for mortality and growth inhibition in comparison to untreated samples 5 days after infestation.
# [8] = test system: Diabrotica balteata (corn root worm); experiment: Activity against Diabrotica balteata (corn root worm), maize sprouts sprayed; format: in vivo; conditions: for percent effect (mortality or growth inhibition) at 200 ppm: 96 h, application rate 200 ppm, L2 larvae, 4 days after infestation, read-out: effect in at least one of the two categories (mortality or growth inhibition)
# Experimental: as §1, with “Maize sprouts placed onto an agar layer in 24-well” for “24-well”, “plates” for “plates with artificial diet”, “spraying.” for “pipetting.”, “(6” for “(10”, “10” for “15”, “4” for “5”
# [9] = test system: Franklinella occidentalis (Western Flower Thrips); experiment: Activity against Franklinella occidentalis (western flower thrips); format: in vivo; conditions: Frankliniella occidentalis, 168 h; application rate 200 ppm; mixed ages; 7 days after infestation
# Experimental: Sunflower leaf discs were placed on agar in 24-well microtiter plates and sprayed with aqueous test solutions prepared from […] stock solutions. After drying the leaf discs were infested with a Frankliniella population of mixed ages. The samples were assessed for mortality 7 days after infestation.
# [10] = test system: Spodoptera littoralis (Egyptian Cotton Leaf Worm); experiment: Activity against Spodoptera littoralis (Egyptian cotton leaf worm), uptake via lettuce roots from agar; format: in vivo; conditions: 144 h, test rate 12.5 ppm, 6 days after infestation, read-out: effect in at least one of the three categories (mortality, anti-feeding, or growth inhibition)
# From the text: Test compounds were applied by pipette from 10′000 ppm DMSO stock solutions into 24-well plates and mixed with agar. Lettuce seeds were placed onto the agar and the multi well plate was closed by another plate which contained also agar. After 7 days the compound was absorbed by the roots and the lettuce grew into the lid plate. The lettuce leaves were then cut off into the lid plate. Spodoptera eggs were pipetted through a plastic stencil onto a humid gel blotting paper and the lid plate was closed with it. The samples were assessed for mortality, anti-feedant effect and growth inhibition in comparison to untreated samples 6 days after infestation.
# [11] = concentration 12.5 ppm, listed as drawing 143
Compound,mortality at 200 ppm [1] [%],percent effect (mortality or growth inhibition) at 200 ppm [2] [%],"percent control (mortality, anti-feedant effect or growth inhibition) at 200 ppm [3] [%]",mortality at 200 ppm [4] [%],mortality at 24 ppm [5] [%],mortality at 200 ppm [6] [%],percent effect (mortality or growth inhibition) at 200 ppm [7] [%],percent effect (mortality or growth inhibition) at 200 ppm [8] [%],melting point [°C],mortality at 200 ppm [9] [%],"Mortality (%) [2, 11] [%]","Mortality (%) [3, 11] [%]","Mortality (%) ([4]; Myzus persicae (feeding/contact), concentration 50 ppm, listed as drawing 143)","percent effect (mortality, anti-feeding or growth inhibition) at 12.5 ppm [10] [%]","Mortality (%) ([5]; Myzus persicae (systemic), concentration 1.5 ppm, listed as drawing 143)","Mortality (%) ([8]; concentration 50 ppm, listed as drawing 143)"
"CCS(=O)(=O)c1cc(C2(C#N)CC2)ccc1-c1nc2cc(C(F)(F)F)n(OC)c(=O)c2n1C [Compound A9, 1-[3-ethylsulfonyl-4-[5-methoxy-3-methyl-4-oxo-6-(trifluoromethyl)imidazo[4,5-c]pyridin-2-yl)phenyl]cyclopropanecarbonitrile]",≥ 80,≥ 80,≥ 80,≥ 80,≥ 80,≥ 80,≥ 80,≥ 80,–,–,–,–,–,–,–,–
"CCS(=O)(=O)c1ccc(-n2cncn2)nc1-c1nc2cc(C(F)(F)F)n(OC)c(=O)c2n1C [Compound A3, 2-[3-ethylsulfonyl-6-(1,2,4-triazol-1-yl)-2-pyridyl]-5-methoxy-3-methyl-6-(trifluoromethyl)imidazo[4,5-c]pyridin-4-one]",≥ 80,≥ 80,≥ 80,≥ 80,≥ 80,≥ 80,≥ 80,≥ 80,–,–,–,–,–,–,–,–
"CCS(=O)(=O)c1ccc(Cl)nc1-c1nc2cc(C(F)(F)F)n(OC)c(=O)c2n1C [Compound A11, 2-(6-chloro-3-ethylsulfonyl-2-pyridyl)-5-methoxy-3-methyl-6-(trifluoromethyl)imidazo[4,5-c]pyridin-4-one]",–,–,–,–,–,–,–,–,195 to 197,–,–,–,–,–,–,–
"CCS(=O)(=O)c1cc(C(C)(C)C#N)cnc1-c1nc2cc(C(F)(F)F)n(OC)c(=O)c2n1C [Compound A12, 2-[5-ethylsulfonyl-6-[5-methoxy-3-methyl-4-oxo-6-(trifluoromethyl)imidazo[4,5-c]pyridin-2-yl]-3-pyridyl]-2-methyl-propanenitrile]",–,≥ 80,≥ 80,≥ 80,≥ 80,≥ 80,≥ 80,≥ 80,–,≥ 80,–,–,–,–,–,–
"CCS(=O)(=O)c1cccnc1-c1nc2cc(C(F)(F)F)n(OC)c(=O)c2n1C [Compound A2, 2-(3-ethylsulfonyl-2-pyridyl)-5-methoxy-3-methyl-6-(trifluoromethyl) imidazo[4,5-c]pyridin-4-one]",–,≥ 80,≥ 80,≥ 80,≥ 80,–,≥ 80,≥ 80,–,–,80,80,100,≥ 80,80,100
"CCS(=O)(=O)c1cc(C2(C#N)CC2)cnc1-c1nc2cc(C(F)(F)F)n(OC)c(=O)c2n1C [Compound A8, 1-[5-ethylsulfonyl-6-[5-methoxy-3-methyl-4-oxo-6-(trifluoromethyl)imidazo[4,5-c]pyridin-2-yl]-3-pyridyl]cyclopropanecarbonitrile]",≥ 80,≥ 80,≥ 80,≥ 80,≥ 80,≥ 80,≥ 80,≥ 80,–,–,–,–,–,–,–,–
"CCS(=O)(=O)c1cc(Cl)c(N)nc1-c1nc2cc(C(F)(F)F)n(OC)c(=O)c2n1C [Compound A14, 2-(6-amino-5-chloro-3-ethylsulfonyl-2-pyridyl)-5-methoxy-3-methyl-6-(trifluoromethyl)imidazo[4,5-c]pyridin-4-one]",–,≥ 80,≥ 80,≥ 80,≥ 80,≥ 80,≥ 80,≥ 80,–,–,–,–,–,–,–,–
"CCS(=O)(=O)c1ccc(-n2ccnn2)nc1-c1nc2cc(C(F)(F)F)n(OC)c(=O)c2n1C [Compound A4, 2-[3-ethylsulfonyl-6-(triazol-1-yl)-2-pyridyl]-5-methoxy-3-methyl-6-(trifluoromethyl)imidazo[4,5-c]pyridin-4-one]",–,≥ 80,≥ 80,≥ 80,≥ 80,≥ 80,≥ 80,≥ 80,–,–,–,–,–,–,–,–
